Patent publication US20120208809A1, “9H-PYRROLO[2,3-B: 5,4-C'] DIPYRIDINE AZACARBOLINE DERIVATIVES, PREPARATION THEREOF, AND THERAPEUTIC USE THEREOF” (SANOFI, priority 2009, published 2012)

What was measured:
[1] = target: T1, Pim-3 (Homo sapiens, UniProt Q86V86); assay: TR-FRET assay of Pim kinase activity (phosphorylation of Bad Ser112), Pim-3; assay type: biochemical; settings: ATP 40 μM, read-out: IC50 Pim3
T1 construct: full-length human recombinant His6-labelled Pim-1, Pim-2 or Pim-3 protein; His6; made in house
Method in brief: (§1)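 Full-length His6-tagged human Pim-1, -2 or -3 phosphorylate full-length His6-Bad at 40 μM ATP; phospho-Ser112 detected by TR-FRET (Eu anti-phosphoBad, APC anti-His6), 665/615 nm ratio. Compounds run at 10 concentrations in duplicate, typically top 30 μM; IC50 from 4-parameter logistic fit.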

[2] = target: T2, Pim-2 (Homo sapiens, UniProt Q9P1W9); assay: TR-FRET assay of Pim kinase activity (phosphorylation of Bad Ser112), Pim-2; assay type: biochemical; settings: ATP 40 μM, read-out: IC50 Pim2
T2 construct: full-length human recombinant His6-labelled Pim-1, Pim-2 or Pim-3 protein; His6; made in house
Method in brief: as §1

[3] = target: CDK1 (Homo sapiens, UniProt P06493); assay: Biochemical results, IC50 CDK1
[4] = tested on: MOLM-13; assay: Cell viability assay (CellTiter-Blue), MOLM-13; assay type: cell-based; settings: Homo sapiens, read-out: EC50 MOLM-13 μM, MOLM-13 cells, read-out: EC50 MOLM-13 μM (myeloma)
Experimental: (§2) The representative compounds of the invention are also screened as regards their effects on cell proliferation and viability, using a variety of tumoral cell lines of human source, representative of different pathological indications. These cell lines include:
(§3) In order to measure the viability, the tumour cells are incubated in 96-well or 384-well format for 48, 72 or 96 hours, preferably 72 hours, with a compound of the invention at dilutions of a factor 3, with, in general, nine doses in total, the highest dose being equal to 10 μM or 30 μM. The cell viability is evaluated by adding CellTiter-Blue® (Promega, Madison, Wis., United States) for 4 hours and endpoint readings are taken using a SpectraMax Genmini EM plate reader (Molecular Devices, Sunnyvale, Calif., United States). The CellTiter-Blue® cell viability assay measures the ability of the cells in culture to reduce resazurin to resorufin, the intensity of the fluorescence signal being directly proportional to the number of live cells. The EC50 represents the concentration of compound that leads to a 50% reduction of the viability/proliferative expansion of the cells.

[5] = target: PLK1 (Homo sapiens, UniProt P53350); assay: Biochemical results, IC50 PLK1
[6] = target: T3, Pim-1 (Homo sapiens, UniProt P11309); assay: TR-FRET assay of Pim kinase activity (phosphorylation of Bad Ser112), Pim-1; assay type: biochemical; settings: ATP 40 μM, read-out: IC50 Pim1
T3 construct: full-length human recombinant His6-labelled Pim-1, Pim-2 or Pim-3 protein; His6; made in house
Method in brief: as §1

[7] = tested on: EOL-1; assay: Cell viability assay (CellTiter-Blue), EOL-1; assay type: cell-based; settings: Homo sapiens, EOL1, read-out: EC50 EOL-1 μM (eosinophilic leukaemia), EOL-1 cells, read-out: EC50 EOL-1 μM (lymphoma);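 further: EOL-1 is an acute myeloid eosinophilic leukaemia line not a lymphoma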
Text: as §2
Models of Haematological Cancers: • TF-1 (acute myelogenic leukaemia; AML M6 at the time of diagnosis); • K G-1 (AML; erythroleukaemia evolving into AML); • KG-1a (AML; subclone derived from immature KG-1); • EOL-1 (AML: eosinophilic leukaemia); • PL-21 (AML; M3); • ML-2 (AML; T-NHL evolving into T-ALL evolving into AML M4); • HL-60 (AML, M3); • Kasumi-1 (AML); • GDM-1 (AML); • K-562 (CML—chronic myelogenic leukaemia; blastic crisis); • JURL-MK1 (CML; blastic crisis); • DND-41 (T-ALL—T-cell acute lymphoblastic leukaemia); • Jurkat (T-ALL); NALM-6 (B-ALL B-cell ALL); • CEM (ALL; lymphosarcoma evolving into ALL); • Jeko-1 (B-NHL—B-cell non-Hodgkin lymphoma; lymphoma with coat cells derived from a large-cell variant in leukaemic transformation); • WSU-DLCL2 (B-NHL; diffuse lymphoma with large B cells); • RL (B-NHL; undifferentiated diffuse); • OCl-Ly10 (B-NHL); • DoHH-2 (B-NHL); • RPMI-8226 (MM—multiple myelomas); • JVM-2 (B-CLL—B-cell chronic lymphocytic leukaemia); and • JVM-3 (B-CLL).
as §3

[8] = tested on: phosphoBAD (DND-41); assay: Level of phosphorylation of Bad by ELISA, DND-41 cell line; assay type: cell-based; settings: Homo sapiens, DND41, DND-41 cells, 3 hours at 37° C.
Experimental: The activity of the molecules is evaluated on the JEKO or DND-41 cell line by measuring the level of phosphorylation of Bad and the total Bad content, via the ELISA technique.
The JEKO or DND-41 cells are resuspended at a concentration of 500 000 cells per ml. The cells are then diluted in RPMI-1640 medium containing 20% foetal calf serum. 225 μl of cells are placed in a plate. Serial dilutions of the molecules are then performed (8 points, three-fold dilution, range started at 10 mM). Each dilution point is then diluted to 1/100 in medium. Next, 25 μl of each of the concentrations are added to the cells and then incubated for 3 hours at 37° C.
100 μl of the cells are transferred into a plate treated with poly-D-Lysine. The plate is then incubated for 5-10 minutes at 37° C. and then centrifuged for 5 minutes at 1500 rpm. A volume of 100 μl of 8% fixing solution (solution of formaldehyde in PBS buffer) is added to each of the wells. After covering with a self-adhesive film and a lid, the plate is incubated for 20 minutes at room temperature and then stored at 4° C. overnight.
Next, the liquid is removed and two successive washes are performed with washing buffer. 100 μl of quenching buffer are added, followed by incubating for 15 minutes at room temperature. After washing, 100 μl of […] at room temperature. After washing, 50 μl of primary antibody diluted to 1/250 for pBAD (Cell Signaling Cat#5284) and to 1/500 for Bad (MBL Cat#591) are added to each of the plates. Each plate is incubated for 2 hours at room temperature. After two washes, 50 μl of secondary antibody (diluted to 1/16) are added to the pBAD plate (tebu-bio ref; FE-021) and 50 μl of the HRP-conjugated IgG secondary antibody (Santa Cruz Cat #SC-2004; diluted to 1/1000) are added to the Bad plate. Incubation for 1 hour at room temperature is performed. Four washes with the washing solution are performed, followed by three washes with PBS. Finally, 100 μl of the developing solution are added, followed by incubation for 10 minutes. Finally, 100 μl of the quenching solution are added, before reading at 450 nm.

[9] = tested on: MV4-11; assay: Cell viability assay (CellTiter-Blue), MV4-11; assay type: cell-based; settings: Homo sapiens, read-out: EC50 MV4-11 μM (acute myeloid leukemia), MV4-11 cells, read-out: EC50 MV4-11 μM (myeloma)
Experimental: as §2, §3

Chain of CDK1 (P06493 whole entry, species assumed): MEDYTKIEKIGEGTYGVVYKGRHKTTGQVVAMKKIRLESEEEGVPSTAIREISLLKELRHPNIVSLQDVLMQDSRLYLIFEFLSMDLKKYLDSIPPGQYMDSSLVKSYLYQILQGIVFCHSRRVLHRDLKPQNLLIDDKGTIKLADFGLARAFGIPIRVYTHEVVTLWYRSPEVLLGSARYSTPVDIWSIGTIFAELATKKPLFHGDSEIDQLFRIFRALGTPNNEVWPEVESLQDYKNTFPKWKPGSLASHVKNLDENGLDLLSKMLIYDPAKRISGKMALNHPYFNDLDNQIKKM
Chain of CDK1 (P14635 whole entry partner, species assumed): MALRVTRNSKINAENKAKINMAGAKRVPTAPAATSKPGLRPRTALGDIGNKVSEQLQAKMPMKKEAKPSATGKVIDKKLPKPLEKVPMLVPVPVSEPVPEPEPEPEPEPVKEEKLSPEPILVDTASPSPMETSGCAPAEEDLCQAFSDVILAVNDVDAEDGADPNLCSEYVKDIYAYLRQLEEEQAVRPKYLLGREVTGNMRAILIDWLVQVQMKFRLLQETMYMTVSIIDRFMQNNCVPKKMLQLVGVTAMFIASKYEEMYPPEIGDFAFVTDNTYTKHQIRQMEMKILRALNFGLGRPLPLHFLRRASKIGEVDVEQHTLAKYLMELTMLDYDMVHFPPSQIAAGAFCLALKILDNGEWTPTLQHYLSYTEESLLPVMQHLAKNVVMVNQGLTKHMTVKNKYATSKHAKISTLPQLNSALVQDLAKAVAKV
T2 sequence (Q9P1W9 whole entry): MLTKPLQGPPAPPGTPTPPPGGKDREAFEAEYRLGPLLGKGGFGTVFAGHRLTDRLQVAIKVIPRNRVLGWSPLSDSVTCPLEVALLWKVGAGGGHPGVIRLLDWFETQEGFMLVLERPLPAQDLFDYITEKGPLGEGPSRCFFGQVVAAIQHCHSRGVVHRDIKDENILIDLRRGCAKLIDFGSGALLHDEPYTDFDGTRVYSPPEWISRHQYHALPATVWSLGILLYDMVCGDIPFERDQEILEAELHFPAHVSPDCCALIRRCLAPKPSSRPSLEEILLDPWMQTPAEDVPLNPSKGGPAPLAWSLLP
Chain of PLK1 (P53350 whole entry, species assumed): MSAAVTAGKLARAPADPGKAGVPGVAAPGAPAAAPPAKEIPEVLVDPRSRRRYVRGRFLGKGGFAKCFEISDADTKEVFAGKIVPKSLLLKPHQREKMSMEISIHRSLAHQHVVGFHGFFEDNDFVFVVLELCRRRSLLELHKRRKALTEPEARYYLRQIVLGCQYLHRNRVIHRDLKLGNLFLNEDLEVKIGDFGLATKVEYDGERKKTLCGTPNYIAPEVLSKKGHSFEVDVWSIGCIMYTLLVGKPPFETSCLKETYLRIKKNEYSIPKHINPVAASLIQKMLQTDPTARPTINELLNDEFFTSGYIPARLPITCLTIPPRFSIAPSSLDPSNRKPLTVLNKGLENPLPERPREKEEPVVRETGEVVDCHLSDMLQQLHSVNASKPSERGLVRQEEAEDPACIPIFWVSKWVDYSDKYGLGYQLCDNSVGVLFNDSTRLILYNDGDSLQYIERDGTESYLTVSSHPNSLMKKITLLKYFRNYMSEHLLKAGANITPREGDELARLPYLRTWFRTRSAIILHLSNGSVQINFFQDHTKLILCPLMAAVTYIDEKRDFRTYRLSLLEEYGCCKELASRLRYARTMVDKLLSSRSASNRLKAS
T3 sequence (P11309 whole entry): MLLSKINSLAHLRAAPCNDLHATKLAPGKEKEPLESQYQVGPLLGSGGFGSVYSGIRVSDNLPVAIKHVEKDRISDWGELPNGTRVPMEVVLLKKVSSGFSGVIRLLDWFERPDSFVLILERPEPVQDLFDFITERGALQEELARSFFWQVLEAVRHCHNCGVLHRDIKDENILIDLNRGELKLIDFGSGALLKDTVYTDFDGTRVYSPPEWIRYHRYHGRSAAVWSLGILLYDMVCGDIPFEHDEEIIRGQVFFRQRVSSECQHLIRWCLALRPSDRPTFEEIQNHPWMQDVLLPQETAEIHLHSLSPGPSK

Compound | IC50 [1] | IC50 [2] | IC50 [3] | EC50 [4] | IC50 [5] | IC50 [6] | EC50 [7] | IC50 [8] | EC50 [9]
O=C(NCCCN1CCOCC1)c1ccc(-c2c(F)cnc3[nH]c4cnc(-c5cccnc5)cc4c23)cc1 [Example 19, 4-[3-fluoro-6-(pyridin-3-yl)-9H-pyrrolo[2,3-b:5,4-c′]dipyridin-4-yl]-N-[3-(morpholin-4-yl)propyl]benzamide] | < 100 nM | 100 to 1000 nM | 1000 to 5000 nM | 100 to 1000 nM | 100 to 1000 nM | < 100 nM | 100 to 1000 nM | – | –
NCCNC(=O)c1ccc(-c2c(F)cnc3[nH]c4cnc(-c5cccnc5)cc4c23)cc1 [Example 28, N-(2-aminoethyl)-4-[3-fluoro-6-(pyridin-3-yl)-9H-pyrrolo[2,3-b:5,4-c′]dipyridin-4-yl]benzamide] | < 100 nM | < 100 nM | 100 to 1000 nM | – | 100 to 1000 nM | < 100 nM | 100 to 1000 nM | 1000 to 5000 nM | 100 to 1000 nM
CN(C)CCNC(=O)c1ccc(-c2c(F)cnc3[nH]c4cnc(-c5cnn(C)c5)cc4c23)cc1 [Example 37, N-[3-(dimethylamino)ethyl]-4-[3-fluoro-6-(1-methyl-1H-pyrazol-4-yl)-9H-pyrrolo[2,3-b:5,4-c′]dipyridin-4-yl]benzamide] | < 100 nM | < 100 nM | 100 to 1000 nM | – | 1000 to 5000 nM | < 100 nM | – | 1000 to 5000 nM | –
CN(C)CC(C)(C)CNC(=O)c1ccc(-c2c(F)cnc3[nH]c4cnc(-c5cccnc5)cc4c23)cc1 [Example 52, N-[3-(dimethylamino)-2,2-dimethylpropyl]-4-[3-fluoro-6-(pyridin-3-yl)-9H-pyrrolo[2,3-b:5,4-c′]dipyridin-4-yl]benzamide] | < 100 nM | 100 to 1000 nM | 1000 to 5000 nM | – | 100 to 1000 nM | < 100 nM | < 100 nM | 100 to 1000 nM | 100 to 1000 nM
CN(C)CCCN(C)C(=O)c1ccc(-c2c(F)cnc3[nH]c4cnc(-c5cccnc5)cc4c23)cc1 [Example 59, N-[3-(dimethylamino)propyl]-4-[3-fluoro-6-(pyridin-3-yl)-9H-pyrrolo[2,3-b:5,4-c′]dipyridin-4-yl]-N-methylbenzamide] | < 100 nM | 100 to 1000 nM | 100 to 1000 nM | – | 1000 to 5000 nM | < 100 nM | 100 to 1000 nM | 1000 to 5000 nM | 100 to 1000 nM
CN1CCC(CCNC(=O)c2ccc(-c3c(F)cnc4[nH]c5cnc(-c6cccnc6)cc5c34)cc2)CC1 [Example 61, 4-[3-fluoro-6-(pyridin-3-yl)-9H-pyrrolo[2,3-b:5,4-c′]dipyridin-4-yl]-N-[2-(1-methylpiperidin-4-yl)ethyl]benzamide] | < 100 nM | 100 to 1000 nM | 1000 to 5000 nM | – | 1000 to 5000 nM | < 100 nM | 100 to 1000 nM | 1000 to 5000 nM | 100 to 1000 nM
CC(CNC(=O)c1ccc(-c2c(F)cnc3[nH]c4cnc(-c5cccnc5)cc4c23)cc1)N1CCCC1 (stereo not shown) [Example 63, 4-[3-fluoro-6-(pyridin-3-yl)-9H-pyrrolo[2,3-b:5,4-c′]dipyridin-4-yl]-N-[2-(pyrrolidin-1-yl)propyl]benzamide] | < 100 nM | 100 to 1000 nM | 1000 to 5000 nM | – | 100 to 1000 nM | < 100 nM | 100 to 1000 nM | 100 to 1000 nM | 100 to 1000 nM
CN(CC1CCCCN1C)C(=O)c1ccc(-c2c(F)cnc3[nH]c4cnc(-c5cccnc5)cc4c23)cc1 (stereo not shown) [Example 64, 4-[3-fiuoro-6-(pyridin-3-yl)-9H-pyrrolo[2,3-b:5,4-c′]dipyridin-4-yl]-N-methyl-N-[(1-methylpiperidin-2-yl)methyl]benzamide] | < 100 nM | 100 to 1000 nM | 1000 to 5000 nM | – | 100 to 1000 nM | < 100 nM | 100 to 1000 nM | 100 to 1000 nM | 100 to 1000 nM
CC(C)N(CCNC(=O)c1ccc(-c2c(F)cnc3[nH]c4cnc(-c5cccnc5)cc4c23)cc1)C(C)C [Example 66, N-[2-(dipropan-2-ylamino)ethyl]-4-[3-fluoro-6-(pyridin-3-yl)-9H-pyrrolo[2,3-b:5,4-c′]dipyridin-4-yl]benzamide] | < 100 nM | 100 to 1000 nM | 1000 to 5000 nM | – | 100 to 1000 nM | < 100 nM | < 100 nM | 100 to 1000 nM | 100 to 1000 nM
CC(CN(C)C)NC(=O)c1ccc(-c2c(F)cnc3[nH]c4cnc(-c5cccnc5)cc4c23)cc1 (stereo not shown) [Example 68, N-[1-(dimethylamino)propan-2-yl]-4-[3-fluoro-6-(pyridin-3-yl)-9H-pyrrolo[2,3-b:5,4c′]dipyridin-4-yl]benzamide] | < 100 nM | < 100 nM | 1000 to 5000 nM | – | 1000 to 5000 nM | < 100 nM | < 100 nM | < 100 nM | 100 to 1000 nM
CN(C)CCCCNC(=O)c1ccc(-c2c(F)cnc3[nH]c4cnc(-c5cccnc5)cc4c23)cc1 [Example 75, N-[4-(dimethylamino)butyl]-4-[3-fluoro-6-(pyridin-3-yl)-9H-pyrrolo[2,3-b:5,4-c′]dipyridin-4-yl]benzamide] | < 100 nM | 100 to 1000 nM | 100 to 1000 nM | – | 1000 to 5000 nM | < 100 nM | 100 to 1000 nM | 1000 to 5000 nM | 100 to 1000 nM
COCCOc1cnc2[nH]c3cnc(-c4cccnc4)cc3c2c1-c1ccc(C(=O)NCCN(C)C)cc1 [Example 120, N-[2-(dimethylamino)ethyl]-4-[3-(2-methoxyethoxy)-6-(pyridin-3-yl)-9H-pyrrolo[2,3-b:5,4-c′]dipyridin-4-yl]benzamide] | < 100 nM | < 100 nM | – | – | – | < 100 nM | < 100 nM | 100 to 1000 nM | < 100 nM
